In ChEMBL document CHEMBL4052728, “Diaminopimelic acid (DAP) analogs bearing isoxazoline moiety as selective inhibitors against meso-diaminopimelate dehydrogenase (m-Ddh) from Porphyromonas gingivalis” (Bioorg Med Chem Lett, 2017):
Converted amounts (≈) assume the structure as drawn. The source made the active and inactive calls. No cut-off for these calls is given here.

How the values were obtained:
Porphyromonas gingivalis [1] = assay: Antibacterial activity against Porphyromonas gingivalis ATCC 33277 after 24 hrs by broth microdilution method; format: functional; conditions: ATCC 33277, 24 h
[2] = target: T1, Meso-diaminopimelate D-dehydrogenase (Porphyromonas gingivalis (strain ATCC BAA-308 / W83), UniProt Q7MW40); assay: Inhibition of Porphyromonas gingivalis m-Ddh expressed in Escherichia coli BL21 (DE3) pLysS at pH 10.5 using meso-diaminopimelate as substrate by spectrophotometric method
T1 sequence (Q7MW40 whole entry): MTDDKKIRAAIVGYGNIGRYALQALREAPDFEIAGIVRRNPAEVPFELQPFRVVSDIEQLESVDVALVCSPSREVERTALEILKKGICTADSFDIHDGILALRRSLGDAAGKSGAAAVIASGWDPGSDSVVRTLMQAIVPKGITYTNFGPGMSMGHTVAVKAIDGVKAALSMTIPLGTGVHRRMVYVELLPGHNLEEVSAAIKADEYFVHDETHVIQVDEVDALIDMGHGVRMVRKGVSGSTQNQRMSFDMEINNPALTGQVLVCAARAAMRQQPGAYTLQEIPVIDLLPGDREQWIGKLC

Porphyromonas gingivalis [3] = assay: Antibacterial activity against Porphyromonas gingivalis W83 after 24 hrs by broth microdilution method; format: functional; conditions: W83, 24 h
[4] = target: T1, Meso-diaminopimelate D-dehydrogenase; assay: Inhibition of Porphyromonas gingivalis m-Ddh expressed in Escherichia coli BL21 (DE3) pLysS at pH 7.8 using meso-diaminopimelate as substrate by spectrophotometric method
Staphylococcus aureus = assay: Growth inhibition of Staphylococcus aureus N315 up to 3 mM after 24 hrs by broth microdilution method
Fusobacterium nucleatum = assay: Growth inhibition of Fusobacterium nucleatum ATCC 25586 up to 3 mM after 24 hrs by broth microdilution method
[5] = target: T2, Meso-diaminopimelate D-dehydrogenase (Porphyromonas gingivalis (strain ATCC BAA-308 / W83)) (UniProt Q7MW40); assay: Inhibition of Porphyromonas gingivalis m-Ddh expressed in Escherichia coli BL21 (DE3) pLysS up to 3 mM at pH 10.5 using meso-diaminopimelate as substrate by spectrophotometric method
T2 sequence (whole entry): T1 sequence (Q7MW40 whole entry)

[6] = target: T2, Meso-diaminopimelate D-dehydrogenase (Porphyromonas gingivalis (strain ATCC BAA-308 / W83)); assay: Inhibition of Porphyromonas gingivalis m-Ddh expressed in Escherichia coli BL21 (DE3) pLysS up to 1 mM at pH 7.8 using meso-diaminopimelate as substrate by spectrophotometric method

Compound | MIC (Porphyromonas gingivalis [1]) [µM] | IC50 [2] [µM] | MIC (Porphyromonas gingivalis [3]) [µM] | IC50 [4] [µM] | growth inhibition (GI) (Staphylococcus aureus) | growth inhibition (GI) (Fusobacterium nucleatum) | inhibition [5] | inhibition [6]
N[C@@H](C[C@H]1CC(C(=O)O)=NO1)C(=O)O | 1880 (≈ 379 µg/mL) | 211 | 773 (≈ 156 µg/mL) | 14.9 | Non-Toxic | Non-Toxic |  | 
N[C@@H](C[C@@H]1CC(C(=O)O)=NO1)C(=O)O |  |  |  |  |  |  | inactive | inactive
